Source: patent US20210087159A1, “TETRAHYDROCANNABINOLIC- CA[…] DERIVATIVES AND USES THEREOF” (AL&AM […]., priority 2018, published 2021)

Columns and labels:
Format in all cases: cell-based
TNF-α = assay: LPS induced cytokine release assay, TNF-α by ELISA in PBMCs; conditions: human PBMCs; for TNF-α: 72 h; for change of TNF-α expression in LPS-treated cells: tested concentrations of 1 M and 10 M (so in the source)
Description: (§1) This study was aimed to test the effect of 12 compounds (THCA, Ia1, Ia5, Ia6, Ia9, Ia11, Ia15, Ia17, Ia24, Ia25, Ia27, and Ia28) on human peripheral blood mononuclear cells (PBMCs) challenged by lipopolysaccharide (LPS) through monitoring multiple inflammatory endpoints.
(§2) Blood samples were collected from healthy volunteers according to protocols that have been reviewed and approved by the Chempartner Institutional Ethic Committee (IEC) upon signing an Informed Consent Form (ICF).
(§3) Fresh PBMCs were isolated and seeded into 96-well plate, and diluted solutions of the tested compounds and 0.1 μg/mL LPS were then added (in triplicates). To serve as control, 3 wells with PBMCs only, 3 wells with 0.1 μg/mL LPS, and 2 wells with 1 μg/mL dexamethasone (Dex) and 0.1 μg/mL LPS were included. After 72 hours incubation, supernatant was collected for tumor necrosis factor-α (TNF-α) measurement by enzyme-linked immunosorbent assay (ELISA), and cell pellets were harvested for cell proliferation measurement by CellTiter-Glo® Luminescent Cell Viability Assay (CTG).
(§4) The human blood sample from an individual donor was diluted by the same volume of sterile phosphate buffered solution (PBS) and mixed sufficiently by gentle shake. 15 mL Lymphoprep™ medium was transferred into a new 50 mL centrifuge tube, and the diluted blood sample (30 mL) was then carefully added onto the surface of the medium, which consequently contained Ficoll 400 and blood in a volume ratio of 1:2. Four interfaces were observed after centrifugation, which are, from top to bottom, layers of plasma, mononuclear cells, Ficoll medium, and red blood cells (RBCs). Plasma was absorbed, and mononuclear cells were then transferred into another new sterile centrifuge tube. Then, sterile PBS buffer was added into the collected PBMCs for washing, at a volume ratio of 3:1. PBMCs were washed with 5-10 mL PBS twice before cell counting with cytometer. Cells were centrifuged at 350×g, for 10 min, at 20° C. with the acceleration (5) and deceleration (5) settings during the centrifugation. The cells were resuspended with RPMI 1640 complete medium (containing 10% FBS) for assay, and the density was adjusted with RPMI 1640 complete medium to the final concentration of 2E6 cells/mL. Cells suspension of the PBMCs (100 μL/well) were seeded into 96-well plate (#3903).
(§5) Diluted solutions of the tested compounds were prepared with RPMI 1640 complete medium according to the following layout. Compounds were prepared at 5-fold of concentration (50 μM), and then were diluted to the working concentration of 10 μM with RPMI 1640 complete medium and made 10-fold serially dilution (2 points). The diluted compounds (50 μL/well) were added to the indicated wells, and the plate was incubated at 37° C., 5% CO2, for 72 h.
(§6) LPS (0.1 μg/mL, 100 μL) was added into each well. Dex (1 μg/mL) was included as a positive control. Plate was incubated at 37° C., 5% CO2 for 72 h. Supernatant was collected to measure TNF-α by ELISA. Cell proliferation was detected by CTG.

[1] = tested on: human peripheral blood mononuclear cells (PBMCs); assay: Cell proliferation of LPS-challenged PBMCs by CellTiter-Glo (CTG); conditions: human PBMCs
Description: as §1, §2, §3, §4, §5, §6

[2] = tested on: T47D, breast ductal carcinoma; assay: CellTiter-Glo cell viability assay, cancer cell cytotoxicity/anti-proliferation panel (Chempartner); conditions: Table 5, T47D cells, 72 hours; for IC50: Homo sapiens, read-out: AbsIC50; for Inhibition %: 10 μM starting, 10-pt, 3-fold dilution
Protocol: In this study, the biological activity of certain compounds of the present invention on cancer cell cytotoxicity/anti-proliferation panel was tested using the CellTiter-Glo® cell viability assay. The compounds were dissolved in DMSO to make 10 mM solution.
The cell lines tested were all selected from the Chempartner's cell collection and included: Caco-2 ATCC colon adenocarcinoma; TE-6 RIKEN esophagus, carcinoma; PC-3 ATCC prostate adenocarcinoma; T47D, breast ductal carcinoma; U251, brain human glioma; A549, lung carcinoma; OMP-2, multiple myeloma; SK-HEP-1, liver adenocarcinoma; PANC-1, pancreas ductal carcinoma; AsPC-1, pancreas, ductal carcinoma; and U-87 MG, brain glioblastoma.
For the assays described herein, absolute inhibition of cells growth (%) and absolute IC50 (Abs IC50; […]) were used to derive a value that can be used to compare results within and across runs in the same assay, as well as between different assays.
• a. Prepare complete medium: Add FBS and appropriate additives according to the information sheet provided by the vendor. Mix gently. • b. Check the cell name and complete medium and passage number marked on the flask. For adherent cell lines, refer to c to k. For suspension cell lines, refer to g to k. • c. Remove and discard culture medium using a vacuum pump. • d. Briefly rinse the cell layer with 0.25% (w/v) trypsin-0.038% (w/v) EDTA solution to remove all traces of serum that contains trypsin inhibitor. • e. Add 3.0 ml of trypsin-EDTA solution to flask and observe cells under an inverted microscope until cell layer is dispersed. • f. Add 8.0 ml of complete growth medium and aspirate cells by gently pipetting. • g. Transfer the cell suspension to a centrifuge tube and centrifuge at 800-1000 rpm for 3-5 minutes. • h. Discard the supernatant using a vacuum pump. • i. Add appropriate volume of complete medium. Suspend the cell pellet by gently pipetting. • j. Count the cell numbers with Vi-cell XR and adjust cells to appropriate density. • k. Add 100 μL of cell suspension to 96-well opaque-walled clear bottom plates according to the planned plate layout and place the plates in the CO2 incubator overnight. • l. Plate layout:
• Plate preparation of testing articles. 10 mM stock solution of each one of the compounds (provided as powder) was prepared in DMSO. […] 0.5 μL of each of the diluted compounds was transferred to the wells containing 100 μL of the culture medium. The total dilution was 200 fold. Cells were incubated with the compounds for 72 hours at 5% CO2, 37° C.
• Thaw the CellTiter-Glo buffer and equilibrate to room temperature prior to use. • Equilibrate the lyophilized CellTiter-Glo substrate to room temperature prior to use. • Transfer the appropriate volume of CellTiter-Glo buffer into the amber bottle containing CellTiter-Glo substrate to reconstitute the lyophilized enzyme/substrate mixture. This forms the CellTiter-Glo reagent. • Mix by gently vortexing, swirling or by inverting the contents to obtain a homogeneous solution. The CellTiter-Glo substrate should go into solution easily in less than one minute.
• Observe the cell morphology under an inverted microscope after corresponding treatment. • Equilibrate the plate and its contents to room temperature for approximately 30 minutes. • Add 100 μL of CellTiter-Glo reagent to the assay plate by Multidrop Combi instrument. • Mix contents for 10 minutes on an orbital shaker to induce cell lysis. • Allow the plate to incubate at room temperature for 10 minutes to stabilize luminescent signal. • Paste the clear bottom with white back seal and record luminescence with Enspire. The settings should be: Luminescence, measurement time 0.1 ms.
Inhibition (%) and absolute IC50 (μM) of each compound was calculated with XLFit curve fitting software that is compatible to Activity Base.

[3] = compound 1 μM + 0.1 μg/mL LPS, ELISA (LPS control 18.16)
[4] = compound 10 μM + 0.1 μg/mL LPS, ELISA (LPS control 18.16)
[5] = compound 1 μM + 0.1 μg/mL LPS, 72 h (LPS control 84.50)
[6] = compound 10 μM + 0.1 μg/mL LPS, 72 h (LPS control 84.50)

SMILES | TNF-α (TNF-α; [3]) [pg/mL] | TNF-α (TNF-α; [4]) [pg/mL] | change of TNF-α expression in LPS-treated cells (TNF-α) | CTG signal [1, 5] | CTG signal [1, 6] | IC50 [2] [µM] | Inhibition % [2] [%] | decrease of the level of TNF-α as compared to LPS-treated cells (TNF-α; 1 μg/mL Dex) [folds] | TNF-α (TNF-α; 1 μg/ml Dex + 0.1 μg/ml LPS + 0.1% DMSO) [pg/mL] | CTG signal ([1]; 1 μg/ml Dex + 0.1 μg/ml LPS + 0.1% DMSO, 72 h)
CCCCCc1cc2c(c(O)c1C(=O)S)[C@@H]1C=C(C)CC[C@H]1C(C)(C)O2 [Ia25, (6aR,0aR)-1-hydroxy-6,6,9-trimethyl-3-pentyl-6a,7,8,10a-tetrahydro-6H-benzo[c]chromene-2-carbothioic S-acid] | 42.50 | 36.82 | decreased TNF-α expression | 83.27 10^4 | 75.29 10^4 |  |  |  |  | 
CCCCCc1cc2c(c(O)c1C(=O)NCC1CC1)[C@@H]1C=C(C)CC[C@H]1C(C)(C)O2 [Ia5, (6aR,0aR)—N-(cyclopropylmethyl)-1-hydroxy-6,6,9-trimethyl-3-pentyl-6a,7,8,10a-tetrahydro-6H-benzo[c]chromene-2-carboxamide] | 19.60 | 32.33 | increased TNF-α expression | 74.73 10^4 | 76.26 10^4 | > 10 | 7.89 |  |  | 
CCCCCc1cc2c(c(O)c1C(N)=O)[C@@H]1C=C(C)CC[C@H]1C(C)(C)O2 [Ia1, (6aR,0aR)-1-hydroxy-6,6,9-trimethyl-3-pentyl-6a,7,8,10a-tetrahydro-6H-benzo[c]chromene-2-carboxamide] | 16.30 | 11.85 |  | 74.10 10^4 | 70.03 10^4 |  |  |  |  | 
CCCCCc1cc2c(c(O)c1C(=O)NCCOC)[C@@H]1C=C(C)CC[C@H]1C(C)(C)O2 [Ia4, (6aR,0aR)-1-hydroxy-N-(2-methoxyethyl)-6,6,9-trimethyl-3-pentyl-6a,7,8,10a-tetrahydro-6H-benzo[c]chromene-2-carboxamide] |  |  |  |  |  | > 10 | 3.13 |  |  | 
CCCCCc1cc2c(c(O)c1-c1nnc(C)o1)[C@@H]1C=C(C)CC[C@H]1C(C)(C)O2 [Ia24, (6aR,0aR)-6,6,9-Trimethyl-2-(5-methyl-1,3,4-oxadiazol-2-yl)-3-pentyl-6a,7,8,10a-tetrahydro-6H-benzo[c]chromen-1-ol] | 32.33 | 28.53 | decreased TNF-α expression | 77.88 10^4 | 62.41 10^4 |  |  |  |  | 
CCCCCc1cc2c(c(O)c1C(=O)Nc1ccc(N3CCOCC3)cc1)[C@@H]1C=C(C)CC[C@H]1C(C)(C)O2 [Ia17, (6aR,0aR)-1-hydroxy-6,6,9-trimethyl-N-(4-morpholinophenyl)-3-pentyl-6a,7,8,10a-tetrahydro-6H-benzo[c]chromene-2-carboxamide] | 16.44 | 24.59 | increased TNF-α expression | 74.83 10^4 | 72.61 10^4 |  |  |  |  | 
C[C@@H]1C[C@H]2[C@@H]3CCC4=CC(=O)C=C[C@]4(C)[C@@]3(F)[C@@H](O)C[C@]2(C)[C@@]1(O)C(=O)CO [Dex, dexamethasone, reference compound] |  |  |  |  |  |  |  | 2.5 | 5.38 | 65.51 10^4
CCCCCc1cc2c(c(O)c1C(=O)NCc1ccncc1)[C@@H]1C=C(C)CC[C@H]1C(C)(C)O2 [Ia11, 1-hydroxy-6,6,9-trimethyl-3-pentyl-N-(pyridin-4-ylmethyl)-6a,7,8,10a-tetrahydro-6H-benzo[c]chromene-2-carboxamide] | 28.40 | 15.39 | decreased TNF-α expression | 72.49 10^4 | 74.91 10^4 | > 10 | 15.80 |  |  | 
CCCCCc1cc2c(c(O)c1CNCCCN1CCOCC1)[C@@H]1C=C(C)CC[C@H]1C(C)(C)O2 [Ia21, (6aR,10aR)-6,6,9-trimethyl-2-(((3-morpholinopropyl)amino)methyl)-3-pentyl-6a,7,8,10a-tetrahydro-6H-benzo[c]chromen-1-ol] |  |  |  |  |  | > 10 | 21.68 |  |  | 
